According to EP2931723B1, “NEW BICYCLIC COMPOUNDS AND THEIR USE AS ANTIBACTERIAL AGENTS AND -LACTAMASE INHIBITORS” (Fedora Pharmaceuticals Inc., priority 2012, dated 2014):

What was measured:
K. pneumo JMI 4106 = experiment: MIC, antibacterial and synergistic activity; assay type: cell-based; details: K. pneumo JMI 4106 (KPC-3, TEM-1, SHV-12, SHV-141); for MIC Aztreonam + inhibitor: Aztreonam + inhibitor at 4 µg/mL; for MIC Ceftazidime + inhibitor: Ceftazidime + inhibitor at 4 µg/mL; for MIC Meropenem + inhibitor: Meropenem + inhibitor at 4 µg/mL; for MIC: substance alone, read-out: MIC
E. coli JMI 2692 = experiment: MIC, antibacterial and synergistic activity; assay type: cell-based; details: E. coli JMI 2692 (NDM-1, TEM-1, CTX-M-15); for MIC Aztreonam + inhibitor: Aztreonam + inhibitor at 4 µg/mL; for MIC Ceftazidime + inhibitor: Ceftazidime + inhibitor at 4 µg/mL; for MIC Meropenem + inhibitor: Meropenem + inhibitor at 4 µg/mL; for MIC: Escherichia coli, JMI2692, substance alone, read-out: MIC
Procedure: (§1) In the Tables 10 - 12, compounds herein disclosed were tested in combination with various antibiotics against metallo β-lactamase producing bacteria.

K. pneumo JMI 2693 = experiment: MIC, antibacterial and synergistic activity; assay type: cell-based; details: K. pneumo JMI 2693 (NDM-1 (Cpase)); for MIC Aztreonam + inhibitor: Aztreonam + inhibitor at 4 µg/mL; for MIC Ceftazidime + inhibitor: Ceftazidime + inhibitor at 4 µg/mL; for MIC Meropenem + inhibitor: Meropenem + inhibitor at 4 µg/mL; for MIC: substance alone
Procedure: as §1

K. pneumo JMI 2697 = experiment: MIC, antibacterial and synergistic activity; assay type: cell-based; details: K. pneumo JMI 2697 (IMP-4 (Cpase)); for MIC Aztreonam + inhibitor: Aztreonam + inhibitor at 4 µg/mL; for MIC Ceftazidime + inhibitor: Ceftazidime + inhibitor at 4 µg/mL; for MIC Meropenem + inhibitor: Meropenem + inhibitor at 4 µg/mL; for MIC: substance alone
Procedure: as §1

K.pneumo JMI 4109 = experiment: MIC, antibacterial and synergistic activity; assay type: cell-based; details: K.pneumo JMI 4109 (SHV-1, SHV-12); substance alone
P. aerug JMI 2686 = experiment: MIC, antibacterial and synergistic activity; assay type: cell-based; details: P. aerug JMI 2686 (KPC-2 (Cpase)); substance alone
E. coli JMI 10770 = experiment: MIC, antibacterial and synergistic activity; assay type: cell-based; details: Escherichia coli, JMI10770; E. coli JMI 10770 (CTX-M15 (Hyper ESBL)); substance alone
E. coli JMI 11103 = experiment: MIC, antibacterial and synergistic activity; assay type: cell-based; details: for MIC Aztreonam + inhibitor / MIC Ceftazidime + inhibitor / MIC Meropenem + inhibitor: E. coli JMI 11103 (CTX-M15 (Intermediate ESBL)); for MIC Aztreonam + inhibitor: Aztreonam + inhibitor at 4 µg/mL; for MIC Ceftazidime + inhibitor: Ceftazidime + inhibitor at 4 µg/mL; for MIC Meropenem + inhibitor: Meropenem + inhibitor at 4 µg/mL; for MIC: Escherichia coli, JMI11103, E. coli JMI 11103 (CTX-M15 (Intermediate ESBL)), substance alone
[1] = system: metallo β-lactamase producing bacteria; experiment: MIC in combination with various antibiotics against metallo β-lactamase producing bacteria (Tables 10-12); assay type: cell-based; details: Enterobacter cloacae, agent alone
Procedure: as §1

CMY-2 = CMY-2 (Klebsiella pneumoniae, UniProt Q48434); experiment: β-lactamase inhibitory activity, spectrophotometric nitrocefin assay; assay type: biochemical; details: nitrocefin as substrate
CMY-2, sequence (Q48434 21-381, species assumed): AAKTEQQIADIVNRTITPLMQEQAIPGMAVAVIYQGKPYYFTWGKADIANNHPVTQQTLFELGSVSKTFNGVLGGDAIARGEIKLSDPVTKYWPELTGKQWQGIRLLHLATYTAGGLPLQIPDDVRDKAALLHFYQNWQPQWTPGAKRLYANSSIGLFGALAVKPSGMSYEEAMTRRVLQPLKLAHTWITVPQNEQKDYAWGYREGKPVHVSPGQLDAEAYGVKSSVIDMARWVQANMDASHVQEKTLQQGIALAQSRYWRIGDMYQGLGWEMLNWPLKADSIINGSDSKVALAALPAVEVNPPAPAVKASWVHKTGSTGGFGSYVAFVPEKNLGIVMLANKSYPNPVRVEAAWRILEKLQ
Procedure: (§2) The inhibitory activities of compounds herein disclosed against various enzymes were measured by spectrophotometric assay using […] and using nitrocefin as a substrate [J. Antimicrob. Chemother., 28, pp 775-776 (1991)] . The concentration of inhibitor (IC50) which inhibits by 50% the reaction of hydrolysis of nitrocefin by the enzyme is determined. […] Table 13 Test for β-lactamase Inhibitory Activity

CTX-M-9 = CTX-M-9 (Escherichia coli, UniProt Q9L5C8); experiment: as above; assay type: biochemical; details: nitrocefin as substrate
CTX-M-9, sequence (Q9L5C8 29-291): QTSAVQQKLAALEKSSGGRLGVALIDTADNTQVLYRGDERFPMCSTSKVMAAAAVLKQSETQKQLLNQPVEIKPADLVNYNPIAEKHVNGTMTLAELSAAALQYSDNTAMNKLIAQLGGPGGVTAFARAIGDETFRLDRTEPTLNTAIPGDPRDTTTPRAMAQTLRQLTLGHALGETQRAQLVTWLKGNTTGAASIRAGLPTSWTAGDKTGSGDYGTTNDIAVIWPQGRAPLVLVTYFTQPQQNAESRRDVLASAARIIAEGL
Procedure: as §2

KPC-2 = KPC-2 (Klebsiella pneumoniae, UniProt Q9F663); experiment: as above; assay type: biochemical; details: nitrocefin as substrate
KPC-2, sequence (Q9F663 25-293, looked up, species assumed): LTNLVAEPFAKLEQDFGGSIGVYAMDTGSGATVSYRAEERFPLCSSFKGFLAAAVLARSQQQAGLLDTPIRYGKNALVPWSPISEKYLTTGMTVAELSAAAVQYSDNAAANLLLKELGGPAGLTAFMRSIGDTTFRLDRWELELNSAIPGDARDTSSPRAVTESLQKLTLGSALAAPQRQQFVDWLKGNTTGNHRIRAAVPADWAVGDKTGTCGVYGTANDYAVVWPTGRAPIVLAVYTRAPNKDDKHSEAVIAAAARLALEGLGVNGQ
Procedure: as §2

TEM-1 = TEM-1 (Escherichia coli, UniProt P62593); experiment: as above; assay type: biochemical; details: nitrocefin as substrate
TEM-1, sequence (P62593 24-286 limits assumed): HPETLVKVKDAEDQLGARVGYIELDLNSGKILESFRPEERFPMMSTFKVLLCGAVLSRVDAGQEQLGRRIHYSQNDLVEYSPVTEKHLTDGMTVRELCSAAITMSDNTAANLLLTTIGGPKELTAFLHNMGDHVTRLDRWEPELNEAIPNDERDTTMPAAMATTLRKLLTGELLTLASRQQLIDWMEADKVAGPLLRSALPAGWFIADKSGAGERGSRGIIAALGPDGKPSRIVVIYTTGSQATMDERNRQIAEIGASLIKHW
Procedure: as §2

| Compound | MIC Aztreonam + inhibitor (K. pneumo JMI 4106) | MIC Ceftazidime + inhibitor (K. pneumo JMI 4106) | MIC Meropenem + inhibitor (K. pneumo JMI 4106) | MIC (K. pneumo JMI 4106) | MIC Aztreonam + inhibitor (E. coli JMI 2692) | MIC Ceftazidime + inhibitor (E. coli JMI 2692) | MIC Meropenem + inhibitor (E. coli JMI 2692) | MIC (E. coli JMI 2692) | MIC Aztreonam + inhibitor (K. pneumo JMI 2693) | MIC Ceftazidime + inhibitor (K. pneumo JMI 2693) | MIC Meropenem + inhibitor (K. pneumo JMI 2693) | MIC (K. pneumo JMI 2693) | MIC Aztreonam + inhibitor (K. pneumo JMI 2697) | MIC Ceftazidime + inhibitor (K. pneumo JMI 2697) | MIC Meropenem + inhibitor (K. pneumo JMI 2697) | MIC (K. pneumo JMI 2697) | MIC (K.pneumo JMI 4109) | MIC (P. aerug JMI 2686) | MIC (E. coli JMI 10770) | MIC Aztreonam + inhibitor (E. coli JMI 11103) | further results |
| --- | --- | --- | --- | --- | --- | --- | --- | --- | --- | --- | --- | --- | --- | --- | --- | --- | --- | --- | --- | --- | --- |
| O=C(NNC(=O)[C@H]1CC[C@H]2CN1C(=O)N2OS(=O)(=O)O)C1CC1 (stereo in doubt) [Ex. 7, (2R,5S)-N'-(cyclopropylcarbonyl)-7-oxo-6-(sulfooxy)-1,6-diazabicyclo[3.2.1]octane-2-carbohydrazide] | 0.125 µg/mL | ≤0.25 µg/mL | ≤0.0312 µg/mL | 16 µg/mL | ≤0.062 µg/mL | ≤0.25 µg/mL | 0.5 µg/mL | 8 µg/mL | 1 µg/mL | 2 µg/mL | 0.25 µg/mL | > 16 µg/mL | ≤0.062 µg/mL | 16 µg/mL | 2 µg/mL | > 16 µg/mL | 2 µg/mL | > 16 µg/mL | 8 µg/mL | ≤0.062 µg/mL | MIC Ceftazidime + inhibitor (E. coli JMI 11103): ≤0.25 µg/mL; MIC Meropenem + inhibitor (E. coli JMI 11103): ≤0.0312 µg/mL; MIC (E. coli JMI 11103): 16 µg/mL |
| O=C(NNC(=O)[C@H]1CC[C@H]2CN1C(=O)N2OS(=O)(=O)O)C1CNC1 (stereo in doubt) [Ex. 9, (2R,5S)-N'-(azetidin-3-ylcarbonyl)-7-oxo-6-(sulfooxy)-1,6-diazabicyclo[3.2.1]octane-2-carbohydrazide] | 0.5 µg/mL | ≤0.25 µg/mL | 0.125 µg/mL | 8 µg/mL | 1 µg/mL | >16 µg/mL | 0.125 µg/mL | 8 µg/mL | 0.25 µg/mL | ≤0.25 µg/mL | 0.125 µg/mL | > 16 µg/mL | ≤0.06 µg/mL | 8 µg/mL | 2 µg/mL | 16 µg/mL | 4 µg/mL | 16 µg/mL | > 16 µg/mL | ≤0.06 µg/mL | MIC Ceftazidime + inhibitor (E. coli JMI 11103): ≤0.25 µg/mL; MIC Meropenem + inhibitor (E. coli JMI 11103): ≤0.03 µg/mL; MIC (E. coli JMI 11103): > 16 µg/mL |
| O=C(NO[C@H]1CCNC1)[C@@H]1CC[C@@H]2CN1C(=O)N2OS(=O)(=O)O [Ex. 1, (2S,5R)-7-Oxo-N-[(3S)-pyrrolidin-3-yloxy]-6-(sulfooxy)-1,6-diazabicyclo[3.2.1]octane-2-carboxamide] | 0.25 µg/mL | ≤0.25 µg/mL | ≤.031 µg/mL | 16 µg/mL | 0.25 µg/mL | ≤0.25 µg/mL | ≤.031 µg/mL | 4 µg/mL | 0.125 µg/mL | ≤0.25 µg/mL | 0.062 µg/mL | > 16 µg/mL | 0.25 µg/mL | 16 µg/mL | >2 µg/mL | 16 µg/mL | 4 µg/mL | > 16 µg/mL | 8 µg/mL | ≤.062 µg/mL | MIC Ceftazidime + inhibitor (E. coli JMI 11103): ≤0.25 µg/mL; MIC Meropenem + inhibitor (E. coli JMI 11103): ≤.031 µg/mL; MIC (E. coli JMI 11103): 8 µg/mL |
| CC(=O)NNC(=O)[C@@H]1CC[C@@H]2CN1C(=O)N2OS(=O)(=O)O [Ex. 5, (2S,5R)-N'-acetyl-7-oxo-6-(sulfooxy)-1,6-diazabicyclo[3.2.1]octane-2-carbohydrazide] | 1 µg/mL | 0.5 µg/mL | 2 µg/mL | > 16 µg/mL | ≤0.062 µg/mL | ≤0.25 µg/mL | ≤0.031 µg/mL | 2 µg/mL | 0.5 µg/mL | 0.5 µg/mL | 0.125 µg/mL | > 16 µg/mL | ≤0.062 µg/mL | >2 µg/mL | 0.125 µg/mL | 16 µg/mL | > 16 µg/mL | 16 µg/mL | 8 µg/mL | ≤0.062 µg/mL | MIC ([1]; Isolate No 4, Enzyme VIM-6): 64; MIC ([1]; Isolate No 10, Enzyme IMP-26): 64; IC50 (CMY-2): 0.008 ± 0.001 µM; IC50 (CTX-M-9): 0.327 ± 0.02 µM; IC50 (KPC-2): 0.091 ± 0.009 µM; IC50 (TEM-1): 0.052 ± 0.004 µM; MIC Ceftazidime + inhibitor (E. coli JMI 11103): ≤0.25 µg/mL; MIC Meropenem + inhibitor (E. coli JMI 11103): ≤0.031 µg/mL; MIC (E. coli JMI 11103): 8 µg/mL |
